Experimental data published in the NIST ThermoML archive (doi:10.1016/j.jct.2011.11.025).
Numbers after ± are expanded uncertainties.

Experiment: activity coefficient (dimensionless); of the first substance listed, at infinite dilution; xn = mol fraction of the nth substance listed
Conditions: Liquid, Chromatography, x1 = 0

Structure (SMILES) | activity coefficient (318.15 K) | activity coefficient (328.15 K) | activity coefficient (338.15 K) | activity coefficient (348.15 K) | activity coefficient (358.15 K) | activity coefficient (368.15 K)
CCC(C)(C)C [2,2-dimethylbutane] + CCCCCCn1cc[n+](C)c1.N#C[B-](C#N)(C#N)C#N | 10.5 ± 0.5 | 9.96 ± 0.46 | 9.52 ± 0.44 | 9.24 ± 0.42 | 8.92 ± 0.41 | 8.69 ± 0.4
c1ccccc1 [benzene] + CCCCCCn1cc[n+](C)c1.N#C[B-](C#N)(C#N)C#N | 0.733 ± 0.029 | 0.743 ± 0.029 | 0.758 ± 0.029 | 0.773 ± 0.028 | 0.783 ± 0.028 | 0.8 ± 0.028
COC(C)(C)C [2-methoxy-2-methylpropane] + CCCCCCn1cc[n+](C)c1.N#C[B-](C#N)(C#N)C#N | 1.62 ± 0.07 | 1.66 ± 0.07 | 1.71 ± 0.07 | 1.76 ± 0.07 | 1.81 ± 0.08 | 1.87 ± 0.08
CC(C)=O [acetone] + CCCCCCn1cc[n+](C)c1.N#C[B-](C#N)(C#N)C#N | 0.335 ± 0.035 | 0.344 ± 0.035 | 0.354 ± 0.035 | 0.363 ± 0.035 | 0.372 ± 0.034 | 0.381 ± 0.034
Cc1cccc(C)c1 [1,3-dimethylbenzene] + CCCCCCn1cc[n+](C)c1.N#C[B-](C#N)(C#N)C#N | 1.36 ± 0.05 | 1.39 ± 0.05 | 1.42 ± 0.05 | 1.44 ± 0.05 | 1.47 ± 0.06 | 1.5 ± 0.06
CC(C)CC(C)(C)C [2,2,4-trimethylpentane] + CCCCCCn1cc[n+](C)c1.N#C[B-](C#N)(C#N)C#N | 18.8 ± 0.9 | 17.6 ± 0.8 | 16.5 ± 0.8 | 15.7 ± 0.7 | 15 ± 0.7 | 14.3 ± 0.7
COC(C)=O [methyl ethanoate] + CCCCCCn1cc[n+](C)c1.N#C[B-](C#N)(C#N)C#N | 0.508 ± 0.032 | 0.521 ± 0.032 | 0.538 ± 0.032 | 0.55 ± 0.032 | 0.566 ± 0.032 | 0.586 ± 0.031
CC(C)(C)O [2-methylpropan-2-ol] + CCCCCCn1cc[n+](C)c1.N#C[B-](C#N)(C#N)C#N | 1.2 ± 0.04 | 1.11 ± 0.03 | 1.04 ± 0.03 | 0.988 ± 0.025 | 0.951 ± 0.026 | 0.914 ± 0.026
C=C(C)c1ccccc1 [(1-methylethenyl)benzene] + CCCCCCn1cc[n+](C)c1.N#C[B-](C#N)(C#N)C#N |  | 1.2 ± 0.04 | 1.26 ± 0.04 | 1.3 ± 0.04 | 1.34 ± 0.05 | 1.38 ± 0.05
c1ccsc1 [thiophene] + CCCCCCn1cc[n+](C)c1.N#C[B-](C#N)(C#N)C#N | 0.636 ± 0.03 | 0.647 ± 0.03 | 0.657 ± 0.03 | 0.666 ± 0.03 | 0.678 ± 0.03 | 0.689 ± 0.03
CCCCCCCCC [nonane] + CCCCCCn1cc[n+](C)c1.N#C[B-](C#N)(C#N)C#N | 31.4 ± 1.5 | 28.8 ± 1.3 | 26.6 ± 1.2 | 24.9 ± 1.2 | 23.2 ± 1.1 | 21.9 ± 1
C=Cc1ccccc1 [styrene] + CCCCCCn1cc[n+](C)c1.N#C[B-](C#N)(C#N)C#N |  | 0.83 ± 0.03 | 0.856 ± 0.027 | 0.878 ± 0.027 | 0.902 ± 0.026 | 0.926 ± 0.026
C1CCCCC1 [cyclohexane] + CCCCCCn1cc[n+](C)c1.N#C[B-](C#N)(C#N)C#N | 6.52 ± 0.3 | 6.15 ± 0.28 | 5.85 ± 0.27 | 5.58 ± 0.26 | 5.38 ± 0.25 | 5.21 ± 0.24
CCCC=O [butanal] + CCCCCCn1cc[n+](C)c1.N#C[B-](C#N)(C#N)C#N | 0.512 ± 0.032 | 0.523 ± 0.032 | 0.539 ± 0.032 | 0.554 ± 0.032 | 0.564 ± 0.032 | 0.579 ± 0.031
